Values quoted from earlier work in patent US20170119788A1, “METHODS AND COMPOSITIONS FOR DERMATOLOGICAL USE COMPRISING FLUTICASONE AND MOMETASONE AND BIOPOLYMERS” (APEX LABORATORIES PRIVATE LIMITED, priority 2015, published 2017).
Where two headings read alike, the source gives them in different places.

Tests used:
[1] = target: T1, human glucocorticoid receptors (Homo sapiens, UniProt P04150); settings: in vitro, result in words
T1 sequence (P04150 1-777): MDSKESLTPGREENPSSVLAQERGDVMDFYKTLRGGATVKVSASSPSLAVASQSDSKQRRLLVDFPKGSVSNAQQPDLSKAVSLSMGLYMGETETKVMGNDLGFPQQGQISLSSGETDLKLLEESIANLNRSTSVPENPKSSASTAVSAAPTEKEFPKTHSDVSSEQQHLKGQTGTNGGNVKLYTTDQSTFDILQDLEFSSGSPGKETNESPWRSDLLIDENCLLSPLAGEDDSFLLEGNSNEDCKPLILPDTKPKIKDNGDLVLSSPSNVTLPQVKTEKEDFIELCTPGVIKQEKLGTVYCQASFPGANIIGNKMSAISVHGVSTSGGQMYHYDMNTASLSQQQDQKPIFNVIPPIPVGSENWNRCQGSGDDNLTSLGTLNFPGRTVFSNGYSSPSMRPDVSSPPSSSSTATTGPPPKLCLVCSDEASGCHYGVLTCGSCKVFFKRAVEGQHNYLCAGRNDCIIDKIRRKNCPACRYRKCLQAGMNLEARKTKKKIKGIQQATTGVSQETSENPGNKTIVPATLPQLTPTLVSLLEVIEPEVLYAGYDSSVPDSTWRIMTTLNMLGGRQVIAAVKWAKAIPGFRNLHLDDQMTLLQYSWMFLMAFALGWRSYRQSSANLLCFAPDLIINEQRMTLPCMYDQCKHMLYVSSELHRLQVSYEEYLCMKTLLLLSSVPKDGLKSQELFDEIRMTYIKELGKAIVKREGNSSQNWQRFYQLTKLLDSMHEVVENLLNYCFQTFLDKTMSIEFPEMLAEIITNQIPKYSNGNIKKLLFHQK

[2] = not given; remark: listed apart in the source
human plasma proteins = settings: average
erythrocytes = settings: result in words
human transcortin = target: T2, human transcortin (Homo sapiens, UniProt P08185); settings: result in words
T2 sequence (P08185 23-405): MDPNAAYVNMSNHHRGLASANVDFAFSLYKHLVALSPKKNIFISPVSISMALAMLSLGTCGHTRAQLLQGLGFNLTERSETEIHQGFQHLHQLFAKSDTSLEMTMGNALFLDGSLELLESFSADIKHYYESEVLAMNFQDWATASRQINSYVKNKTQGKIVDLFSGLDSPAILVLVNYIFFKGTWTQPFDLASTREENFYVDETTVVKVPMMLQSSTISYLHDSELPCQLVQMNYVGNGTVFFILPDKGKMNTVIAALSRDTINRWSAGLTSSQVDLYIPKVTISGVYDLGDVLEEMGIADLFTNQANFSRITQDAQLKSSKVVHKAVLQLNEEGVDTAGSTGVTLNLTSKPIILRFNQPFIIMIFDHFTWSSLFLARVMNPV

[3] = not given; remark: listed apart in the source
[4] = not given; remark: listed apart in the source

SMILES: CCC(=O)O[C@]1(C(=O)SCF)[C@H](C)C[C@H]2[C@@H]3C[C@H](F)C4=CC(=O)C=C[C@]4(C)[C@@]3(F)[C@@H](O)C[C@@]21C [Fluticasone propionate, S-(fluoromethyl)6α,9-difluoro-11β-17-dihydroxy-16α-methyl-3-oxoandrosta-1,4-diene-17β-carbothioate, 17-propionate]
- solubility in dimethyl sulfoxide and dimethylformamide (dimethyl sulfoxide and dimethylformamide): freely soluble
- solubility in methanol and 95% ethanol (methanol and 95% ethanol): slightly soluble
- solubility in water (water): practically insoluble
- affinity and agonist activity at human glucocorticoid receptors [1]: strong affinity and agonist activity
- apparent volume of distribution, average [2]: 4.2 L/kg
- terminal half-life, average [2]: 7.2 h
- percentage bound to human plasma proteins (human plasma proteins): 91%
- binding to erythrocytes (erythrocytes): weakly and reversibly bound
- binding to human transcortin (human transcortin): not significantly bound

SMILES: C[C@@H]1C[C@H]2[C@@H]3CCC4=CC(=O)C=C[C@]4(C)[C@@]3(Cl)[C@@H](O)C[C@]2(C)[C@@]1(OC(=O)c1ccco1)C(=O)CCl [Mometasone Furoate, 9α, 21-dichloro-11β, 17-dihydroxy-16α-methylpregna-1,4-diene-3, 20-dione 17-(2-Furoate)]
- solubility in ethyl alcohol ([3]; ethyl alcohol): moderately soluble
- solubility in octanol ([3]; octanol): slightly soluble
- solubility in water ([3]; water): practically insoluble
- bioavailability of an inhaled dose ([4]; compared with IV administration): less than 1%
- excretion in the feces ([4]; up to 7 days): 74%
- excretion in the urine ([4]; up to 7 days): 8%
